The results in this text go back to patent publication US11780893B2, “Kv1.3 blockers” (Zealand Pharma A/S, priority 2019, dated 2023).

Read-outs that look alike come from different tables or passages of the source. Bridge positions count the residues as written; N and C are the ends. Square brackets hold non-standard residues; d marks the D form. Peptide text beside a SMILES is read from it. Nle = CCCC[C@H](N)C(=O)O

Common to all, as to assay: cell-based
In test [1] the target is T1, Kv1.3 (Homo sapiens, UniProt P22001).
T1 construct: expressed in transfected cells; host or cells: Chinese Hamster Ovary (CHO)

Test [2] addresses T2, Kv1.2 (Homo sapiens, UniProt P16389).
T2 construct: expressed in transfected cells; host or cells: Chinese Hamster Ovary (CHO)

For test [3], the target named is T3, human Kv1.3 voltage-gated K+ channel (Homo sapiens, UniProt P22001).
T3 construct: host or cells: CHO-DUKX

In test [4] the target is T4, Kv1.1 (Homo sapiens, UniProt Q09470).
T4 construct: expressed in transfected cells; host or cells: Chinese Hamster Ovary (CHO)
The conditions noted are these: for Selectivity Kv1.1/Kv1.3: ratio IC50[Kv1.1]/IC50[Kv1.3].

The target in test [5] is T5, Kv1.6 (Homo sapiens, UniProt P17658).
T5 construct: expressed in transfected cells; host or cells: Chinese Hamster Ovary (CHO)
The conditions noted are these: for Selectivity Kv1.6/Kv1.3: ratio IC50[Kv1.6]/IC50[Kv1.3].

[6] abbreviates: CHO cells, whole-cell patch clamp, read-out: Potency IC50 (nM) Kv1.3.
Setting [7] is: CHO cells, whole-cell patch clamp, read-out: Potency IC50 (nM) Kv1.2.
Setting [8] is: inhibition of thallium flux, CHO-DUKX cells with human Kv1.3, read-out: IC50.
The mark [9] stands for this setting: CHO cells, whole-cell patch clamp, read-out: Potency IC50 (nM) Kv1.1.
[10] abbreviates: CHO cells, whole-cell patch clamp, read-out: Potency IC50 (nM) Kv1.6.

T2 sequence (P16389 whole entry): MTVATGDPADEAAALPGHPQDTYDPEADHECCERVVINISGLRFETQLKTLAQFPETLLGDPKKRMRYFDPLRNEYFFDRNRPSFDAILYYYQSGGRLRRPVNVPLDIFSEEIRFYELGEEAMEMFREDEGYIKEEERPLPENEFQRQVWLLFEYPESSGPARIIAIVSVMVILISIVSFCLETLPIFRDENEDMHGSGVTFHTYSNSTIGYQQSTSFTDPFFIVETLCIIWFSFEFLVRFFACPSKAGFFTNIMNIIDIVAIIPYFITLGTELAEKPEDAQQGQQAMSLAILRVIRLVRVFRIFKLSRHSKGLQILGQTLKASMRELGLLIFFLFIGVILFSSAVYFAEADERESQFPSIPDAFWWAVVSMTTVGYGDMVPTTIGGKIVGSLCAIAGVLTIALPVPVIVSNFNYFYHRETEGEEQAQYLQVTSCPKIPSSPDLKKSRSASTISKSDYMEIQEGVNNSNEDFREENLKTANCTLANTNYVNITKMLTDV
T5 sequence (P17658 whole entry): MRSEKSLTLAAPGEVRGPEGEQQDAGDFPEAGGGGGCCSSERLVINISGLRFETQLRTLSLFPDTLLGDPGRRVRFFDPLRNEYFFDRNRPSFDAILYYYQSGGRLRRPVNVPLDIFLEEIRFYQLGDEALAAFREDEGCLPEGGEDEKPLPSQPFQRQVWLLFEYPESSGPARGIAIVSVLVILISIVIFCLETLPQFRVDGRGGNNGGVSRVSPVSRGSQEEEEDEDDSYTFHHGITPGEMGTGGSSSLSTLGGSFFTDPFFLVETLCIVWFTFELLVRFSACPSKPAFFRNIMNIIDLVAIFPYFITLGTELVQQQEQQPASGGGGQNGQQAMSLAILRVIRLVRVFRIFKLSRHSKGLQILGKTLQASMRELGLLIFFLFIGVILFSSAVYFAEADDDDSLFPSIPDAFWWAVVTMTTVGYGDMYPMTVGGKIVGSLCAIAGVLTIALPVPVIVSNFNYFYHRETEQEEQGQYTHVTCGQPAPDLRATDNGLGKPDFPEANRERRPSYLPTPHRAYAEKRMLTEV
T4 sequence (Q09470 whole entry): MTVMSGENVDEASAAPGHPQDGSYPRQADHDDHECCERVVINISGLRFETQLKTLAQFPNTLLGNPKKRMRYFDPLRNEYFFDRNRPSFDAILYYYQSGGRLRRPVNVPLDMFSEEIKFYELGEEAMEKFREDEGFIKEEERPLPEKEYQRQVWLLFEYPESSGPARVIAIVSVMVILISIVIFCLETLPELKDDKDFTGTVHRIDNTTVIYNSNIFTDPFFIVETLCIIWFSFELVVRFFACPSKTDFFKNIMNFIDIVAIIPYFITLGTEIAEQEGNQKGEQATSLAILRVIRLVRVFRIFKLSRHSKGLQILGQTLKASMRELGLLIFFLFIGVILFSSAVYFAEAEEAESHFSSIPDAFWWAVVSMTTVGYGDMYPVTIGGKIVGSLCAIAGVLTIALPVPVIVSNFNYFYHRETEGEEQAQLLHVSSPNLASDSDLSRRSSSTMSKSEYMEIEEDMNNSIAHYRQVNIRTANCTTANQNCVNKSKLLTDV
T1 sequence (P22001 whole entry): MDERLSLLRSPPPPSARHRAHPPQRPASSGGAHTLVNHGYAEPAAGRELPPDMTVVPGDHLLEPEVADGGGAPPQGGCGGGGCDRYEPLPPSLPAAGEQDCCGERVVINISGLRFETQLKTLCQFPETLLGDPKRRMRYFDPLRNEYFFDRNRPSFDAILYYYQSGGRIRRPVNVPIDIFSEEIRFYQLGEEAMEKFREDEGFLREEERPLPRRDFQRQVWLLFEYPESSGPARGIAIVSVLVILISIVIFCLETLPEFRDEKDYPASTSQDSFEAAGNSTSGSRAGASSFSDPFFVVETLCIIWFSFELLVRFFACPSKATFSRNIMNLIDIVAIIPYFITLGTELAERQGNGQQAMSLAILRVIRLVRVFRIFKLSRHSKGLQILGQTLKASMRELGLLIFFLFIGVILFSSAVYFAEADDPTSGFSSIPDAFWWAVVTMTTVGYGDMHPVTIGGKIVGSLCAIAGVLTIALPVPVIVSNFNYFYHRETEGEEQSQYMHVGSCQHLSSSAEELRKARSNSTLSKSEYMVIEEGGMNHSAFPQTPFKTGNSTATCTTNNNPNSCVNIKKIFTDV
T3 sequence (P22001 whole entry): as above

A word on the IC50: it is the midpoint of a concentration-inhibition curve. Regarding `CCCC[C@H](NC(=O)[C@H](CC(=O)O)NC(=O)[C@H](CCCC)NC(=O)[C@@H](N)CO)C(=O)N[C@@H](CCCNC(=N)N)C(=O)N[C@H]1CSSC[C@@H]2NC(=O)[C@H](CCCCN)NC(=O)CNC(=O)[C@H](Cc3ccccc3)NC(=O)[C@H]([C@@H](C)CC)NC(=O)[C@H](CO)NC(=O)CNC(=O)[C@H]([C@@H](C)CC)NC(=O)[C@H](C)NC(=O)[C@H](CCCCN)NC(=O)[C@H](CC(C)C)NC(=O)[C@@H]3CSSC[C@@H](C(=O)N[C@@H](Cc4ccc(O)cc4)C(=O)N4CCC[C@H]4C(=O)N[C@@H](CCCNC(=N)N)C(N)=O)NC(=O)[C@H](CCCCN)NC(=O)[C@H](CSSC[C@H](NC(=O)[C@H](CCC(=O)O)NC(=O)[C@H](C(C)C)NC(=O)[C@H](CO)NC(=O)[C@H](C)NC(=O)[C@H](CO)NC1=O)C(=O)N[C@@H](C)C(=O)N[C@@H](CCC(N)=O)C(=O)N[C@@H](CO)C(=O)N3)NC(=O)[C@H](CCCCN)NC(=O)[C@H](CCCCN)NC(=O)[C@H](CC(N)=O)NC(=O)[C@H](CCSC)NC2=O` [Compound 79] (H-S[Nle]D[Nle]RCSASVECAQSCLKAIGSIFGKCMNKKCKCYPR-NH2; disulfide 6-27, 12-32, 16-34), the IC50 is 0.21 nM in test [1] (setting [6]); 1150 nM in test [2] (setting [7]); 0.13 nM in test [3] (setting [8]); greater than 3000 nM in test [4] (setting [9]); greater than 3000 nM in test [5] (setting [10]). In test [4], the “Selectivity Kv1.1/Kv1.3” value is recorded as greater than 14600. For the same compound, in test [5], the “Selectivity Kv1.6/Kv1.3” value is greater than 14600.

Regarding `CC[C@H](C)[C@@H]1NC(=O)[C@H](C)NC(=O)[C@H](CCCCN)NC(=O)[C@H](CC(C)C)NC(=O)[C@@H]2CSSC[C@@H](C(=O)N[C@@H](Cc3ccc(O)cc3)C(=O)N3CCC[C@H]3C(=O)N[C@@H](CCCNC(=N)N)C(=O)O)NC(=O)[C@H](CCCCN)NC(=O)[C@@H]3CSSC[C@H](NC(=O)[C@H](CCC(=O)O)NC(=O)[C@H](C(C)C)NC(=O)[C@H](CO)NC(=O)[C@H](C)NC(=O)[C@H](CO)NC(=O)[C@@H](NC(=O)[C@H](CCCNC(=N)N)NC(=O)[C@H](CCSC)NC(=O)[C@H](CC(=O)O)NC(=O)[C@H](CCSC)NC(=O)[C@@H](N)CCC(N)=O)CSSC[C@H](NC(=O)[C@H](CCCCN)NC(=O)CNC(=O)[C@H](Cc4ccccc4)NC(=O)CNC(=O)[C@H](CCCNC(=N)N)NC(=O)CNC1=O)C(=O)N[C@@H](CCSC)C(=O)N[C@@H](CC(N)=O)C(=O)N[C@@H](CCCCN)C(=O)N[C@@H](CCCCN)C(=O)N3)C(=O)N[C@@H](CCCCN)C(=O)N[C@@H](CCC(N)=O)C(=O)N[C@@H](CCCCN)C(=O)N2` [Compound 2] (H-QMDMRCSASVECKQKCLKAIGRGFGKCMNKKCKCYPR-OH; disulfide 6-27, 12-32, 16-34), the IC50 in test [1] (setting [6]) was 1.5 nM; in test [2] (setting [7]), 97 nM; in test [3] (setting [8]) it was 0.25 nM; in test [4] (setting [9]) it was greater than 3000 nM; in test [5] (setting [10]), 1810 nM. Besides, in test [4], the “Selectivity Kv1.1/Kv1.3” value is reported as greater than 2000.

On to `CCCC[C@@H]1NC(=O)[C@@H]2CSSC[C@H](NC(=O)[C@H](CCCNC(=N)N)NC(=O)[C@H](CCCC)NC(=O)[C@H](CCC(=O)O)NC(=O)[C@@H](NC(=O)[C@@H]3CCCN3)[C@@H](C)CC)C(=O)N[C@@H](CO)C(=O)N[C@@H](C)C(=O)N[C@@H](CO)C(=O)N[C@@H](C(C)C)C(=O)N[C@@H](CCC(=O)O)C(=O)N[C@H]3CSSC[C@H](NC(=O)[C@H](CCCCN)NC(=O)[C@H](CCCCN)NC(=O)[C@H](CC(N)=O)NC1=O)C(=O)N[C@@H](CCCCN)C(=O)N[C@H](C(=O)N[C@@H](Cc1ccc(O)cc1)C(=O)N1CCC[C@H]1C(=O)N[C@@H](CCCNC(=N)N)C(=O)O)CSSC[C@H](NC(=O)[C@H](CCCCN)NC(=O)[C@H](CCC(N)=O)NC(=O)[C@H](CCCCN)NC3=O)C(=O)N[C@@H](CC(C)C)C(=O)N[C@@H](CCCCN)C(=O)N[C@@H](C)C(=O)N[C@@H]([C@@H](C)CC)C(=O)NCC(=O)N[C@@H](CO)C(=O)N[C@@H]([C@@H](C)CC)C(=O)N[C@@H](Cc1ccccc1)C(=O)NCC(=O)N[C@@H](CCCCN)C(=O)N2` [Compound 96] (H-PIE[Nle]RCSASVECKQKCLKAIGSIFGKC[Nle]NKKCKCYPR-OH; disulfide 6-27, 12-32, 16-34), for which the IC50 was 0.39 nM in test [1]; 1760 nM in test [2]; 0.15 nM in test [3]; greater than 3000 nM in test [4]; greater than 3000 nM in test [5].

Turning to `CC[C@H](C)[C@@H]1NC(=O)[C@@H](NC(=O)[C@H](CO)NC(=O)[C@@H](N)CCCNC(=N)N)CSSC[C@@H](C(=O)O)NC(=O)[C@H]([C@@H](C)O)NC(=O)CNC(=O)[C@@H]2CSSC[C@@H]3NC(=O)[C@H](CCC(N)=O)NC(=O)[C@H](Cc4ccccc4)NC(=O)[C@H](C)NC(=O)[C@H]([C@@H](C)O)NC(=O)[C@H](CSSC[C@H](NC(=O)[C@H](Cc4ccccc4)NC(=O)[C@H](CO)NC(=O)[C@H](CC(C)C)NC(=O)[C@H](CCCNC(=N)N)NC(=O)[C@H](Cc4ccc(O)cc4)NC(=O)[C@H](CCCCN)NC(=O)[C@H](CCSC)NC(=O)[C@H](CO)NC(=O)[C@H](Cc4cnc[nH]4)NC(=O)[C@H](CCCCN)NC3=O)C(=O)N[C@@H](CCCNC(=N)N)C(=O)N[C@@H](CCCCN)C(=O)N[C@@H]([C@@H](C)O)C(=O)N2)NC(=O)[C@H](CCCNC(=N)N)NC(=O)[C@H](CO)NC(=O)[C@H](CCCCN)NC(=O)[C@@H]2CCCN2C(=O)[C@H]([C@@H](C)CC)NC(=O)[C@H]([C@@H](C)O)NC(=O)[C@H](CC(=O)O)NC1=O` [ShK, reference compound], the IC50 in test [2] (setting [7]) turned out to be 11 nM; in test [5] (setting [10]) it was 0.19 nM.

On to `CC[C@H](C)[C@H](NC(=O)[C@H](C)NC(=O)[C@H](C)NC(=O)[C@H](C)N)C(=O)N[C@@H](CO)C(=O)N[C@H]1CSSC[C@@H]2NC(=O)[C@H](CCCCN)NC(=O)CNC(=O)[C@H](CC(N)=O)NC(=O)[C@H](CCCCN)NC(=O)[C@@H]3CSSC[C@@H](C(N)=O)NC(=O)[C@H](Cc4ccc(O)cc4)NC(=O)[C@H](Cc4ccc(O)cc4)NC(=O)[C@@H]4CSSC[C@H](NC(=O)[C@H](CCCCN)NC(=O)[C@@H]5CCCN5C(=O)[C@@H]5CCCN5C(=O)[C@H](CSSC[C@H](NC(=O)[C@H](CCCCN)NC(=O)[C@H](CCCNC(=N)N)NC(=O)[C@H](CC(N)=O)NC(=O)[C@H](CCSC)NC2=O)C(=O)N[C@@H](CCCCN)C(=O)N4)NC(=O)[C@H](CCC(=O)O)NC(=O)[C@@H]2CCCN2C(=O)[C@H](CO)NC(=O)CNC(=O)[C@H](C(C)C)NC1=O)C(=O)N[C@@H](CCCNC(=N)N)C(=O)N[C@@H](C)C(=O)N[C@@H](CCC(N)=O)C(=O)NCC(=O)N3` [Vm24, reference compound], for which the IC50 is 0.15 nM in test [1] (setting [6]), 4.7 nM in test [2] (setting [7]), 0.097 nM in test [4] (setting [9]) and 21 nM in test [5] (setting [10]). Moreover, the “Selectivity Kv1.2/Kv1.3” value in test [2] (ratio IC50[Kv1.2]/IC50[Kv1.3]) is 31. Moreover, the “Selectivity Kv1.1/Kv1.3” value in test [4] is on record as 0.65. Moreover, the “Selectivity Kv1.6/Kv1.3” value in test [5] was determined as 139.
